Structures are written as SMILES.

This data set in a line: Pharmacokinetic study, plasma EZ levels by HPLC. The class given is in vivo, rats.

For orientation: Tmax means the time from dosing to the highest level. `O=C1[C@H](CC[C@H](O)c2ccc(F)cc2)[C@@H](c2ccc(O)cc2)N1c1ccc(F)cc1` [EZ, Ezetimibe]: the “drop of plasma level of EZ from the highest level” value (after 4 h) is 50%. Also, where the note is “rat, plasma, po, 10 mg/kg”, the Tmax was 2 h. Also, the “peak plasma concentration of EZ” value (rats, oral) is recorded as 24.36 ± 1.36 µg/mL.

Source of the values: paper PMC11730522 (BMC Pharmacology & Toxicology, 2025).
